According to patent US10538555B2, “Macrocyclic inhibitors of the PD-1/PD-L1 and CD80(B7-1)/PD-L1 protein/protein interactions” (BRISTOL-MYERS SQUIBB COMPANY, priority 2014, dated 2020):
*1 amine or outer side, *2 acyl side, *3 side chain or, on linkers, in order; H or OH if unused. Where a SMILES comes first, the peptide text is derived from it. Bridges are numbered along the chain shown (N, C = ends). [ ]: non-standard residue; d: D form. ξ: configuration not given here. Trp(1-CH2COOH) = N[C@@H](Cc1cn(CC(=O)O)c2ccccc12)C(=O)O; Phe(3,4,5-F3) = N[C@@H](Cc1cc(F)c(F)c(F)c1)C(=O)O; Phe(3,4-F2) = N[C@@H](Cc1ccc(F)c(F)c1)C(=O)O; d(cisHyp) = O=C(O)[C@H]1C[C@@H](O)CN1; Bta = N[C@@H](Cc1csc2ccccc12)C(=O)O; Hyp = O=C(O)[C@@H]1C[C@@H](O)CN1; NMeF = CN[C@@H](Cc1ccccc1)C(=O)O; X1 = O=C([C@H]1COCCN1[*:1])[*:2]; dHyp = O=C(O)[C@H]1C[C@H](O)CN1; NMehSer = CN[C@@H](CCO)C(=O)O; NMeNle = CCCC[C@H](NC)C(=O)O; Pip = O=C(O)[C@@H]1CCCCN1; dPip = O=C(O)[C@H]1CCCCN1; hSer = N[C@@H](CCO)C(=O)O; NMeA = CN[C@@H](C)C(=O)O; Orn = NCCC[C@H](N)C(=O)O; dThz = O=C(O)[C@H]1CSCN1; Dab = NCC[C@H](N)C(=O)O; Dap = NC[C@H](N)C(=O)O; ξC = NC(CS)C(=O)O

Target: T1, Human PD-L1/PD-1 (Homo sapiens, UniProt Q9NZQ7)
T1 construct: TVMV protease cleavage site (C); made in house; host or cells: HEK293T cells
T1 sequence (Q9NZQ7 with tags, fused parts or gaps): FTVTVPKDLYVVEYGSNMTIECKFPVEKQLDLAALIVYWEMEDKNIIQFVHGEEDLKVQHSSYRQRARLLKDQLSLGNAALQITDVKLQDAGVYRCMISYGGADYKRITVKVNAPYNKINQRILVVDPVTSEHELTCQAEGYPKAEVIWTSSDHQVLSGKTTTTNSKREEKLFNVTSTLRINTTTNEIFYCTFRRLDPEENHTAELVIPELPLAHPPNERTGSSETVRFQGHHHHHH
Assay: HTRF Human PD-L1/PD-1 binding assay (PD-1-Ig/PD-L1-His)
Settings: PD-L1-His 10 nM, PD-1-Ig 20 nM; class symbol; read-out: HTRF Human PD-L1/PD-1 Binding Assay IC50 Range
Procedure, shortened: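 Competition of macrocyclic peptides for PD-1/PD-L1 binding measured by HTRF in dPBS containing 0.1% BSA and 0.05% Tween-20. Compound and PD-L1-His (10 nM final) incubated 15 min before PD-1-Ig (20 nM final) and a further 15 min.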

SMILES	IC50 [nM]
CCCC[C@H]1C(=O)N2C[C@H](O)C[C@@H]2C(=O)N[C@@H](CC(=O)O)C(=O)N[C@@H](C(C)C)C(=O)N(C)[C@@H](Cc2ccccc2)C(=O)N[C@@H](Cc2ccc(OC)cc2)C(=O)N2CCOC[C@@H]2C(=O)N[C@@H](Cc2c[nH]c3ccccc23)C(=O)N[C@@H](Cc2ccc(O)cc2)C(=O)N[C@@H](CCOC)C(=O)N[C@H](C(=O)NCC(N)=O)CSCC(=O)N[C@@H](Cc2cc(F)c(F)c(F)c2)C(=O)N(C)[C@@H](Cc2ccccc2)C(=O)N1C [Example 10180] ({CH2CO}-[Phe(3,4,5-F3)][NMeF][NMeNle][d(cisHyp)]DV[NMeF]Y(Me)[X1]WY[hSer](Me)CG-NH2; thioether N-13)	10 to 99.9
CCCC[C@H]1C(=O)N(C)[C@@H](CCCC)C(=O)N[C@@H](CC(C)C)C(=O)N[C@H](C(=O)NCC(N)=O)CSCC(=O)N[C@@H](Cc2ccc(O)cc2)C(=O)N(C)[C@@H](C)C(=O)N[C@@H](CC(N)=O)C(=O)N2CCC[C@H]2C(=O)N[C@@H](CN)C(=O)N[C@@H](CCC(=O)O)C(=O)N2C[C@H](O)C[C@H]2C(=O)N[C@@H](Cc2c[nH]c3ccccc23)C(=O)N[C@@H](CCN)C(=O)N[C@@H](Cc2cn(CC(=O)O)c3ccccc23)C(=O)N1C [Example 6146] ({CH2CO}-Y[NMeA]NP[Dap]E[Hyp]W[Dab][Trp(1-CH2COOH)][NMeNle][NMeNle]LCG-NH2; thioether N-14)	1 to 9.9
CCCC[C@H]1C(=O)N(C)[C@@H](CCCC)C(=O)N[C@@H](CCC(=O)O)C(=O)N[C@H](C(=O)NCC(N)=O)CSCC(=O)N[C@@H](Cc2ccc(O)cc2)C(=O)N(C)[C@@H](C)C(=O)N[C@@H](CC(=O)O)C(=O)N2CCC[C@H]2C(=O)N[C@@H](Cc2c[nH]cn2)C(=O)N[C@@H](CCC(N)=O)C(=O)N2C[C@H](O)C[C@H]2C(=O)N[C@@H](Cc2c[nH]c3ccccc23)C(=O)N[C@@H](CO)C(=O)N[C@@H](Cc2csc3ccccc23)C(=O)N1C [Example 5215] ({CH2CO}-Y[NMeA]DPHQ[Hyp]WS[Bta][NMeNle][NMeNle]ECG-NH2; thioether N-14)	1 to 9.9
CCCC[C@H]1C(=O)N(C)[C@@H](CCCC)C(=O)N[C@@H](CCC(=O)O)C(=O)N[C@H](C(=O)NCC(N)=O)CSCC(=O)N[C@@H](Cc2ccc(O)cc2)C(=O)N(C)[C@@H](C)C(=O)N[C@@H](CC(=O)O)C(=O)N2CCC[C@H]2C(=O)N[C@@H](CN)C(=O)N[C@@H](CCC(N)=O)C(=O)N2C[C@H](O)C[C@H]2C(=O)N[C@@H](Cc2c[nH]c3ccccc23)C(=O)N[C@@H](CCC(=O)O)C(=O)N[C@@H](Cc2c[nH]c3ccccc23)C(=O)N1C [Example 5245] ({CH2CO}-Y[NMeA]DP[Dap]Q[Hyp]WEW[NMeNle][NMeNle]ECG-NH2; thioether N-14)	1 to 9.9
CCCC[C@H]1C(=O)N2C[C@H](O)C[C@@H]2C(=O)N[C@@H](CC(=O)O)C(=O)N[C@@H](C(C)C)C(=O)N(C)[C@@H](Cc2ccccc2)C(=O)N[C@@H](CC(=O)O)C(=O)N2C[C@H](O)C[C@@H]2C(=O)N[C@@H](Cc2c[nH]c3ccccc23)C(=O)N[C@@H](Cc2ccc(O)cc2)C(=O)N[C@@H](CCCN)C(=O)N[C@H](C(=O)NCC(N)=O)CSCC(=O)N[C@@H](Cc2ccc(F)c(F)c2)C(=O)N(C)[C@@H](Cc2ccccc2)C(=O)N1C [Example 9300] ({CH2CO}-[Phe(3,4-F2)][NMeF][NMeNle][d(cisHyp)]DV[NMeF]D[d(cisHyp)]WY[Orn]CG-NH2; thioether N-13)	1 to 9.9
CCCC[C@H]1C(=O)N(C)[C@@H](CCCC)C(=O)N[C@@H](CCC(=O)O)C(=O)N[C@H](C(=O)NCC(N)=O)CSCC(=O)N[C@@H](Cc2ccc(O)cc2)C(=O)N(C)[C@@H](C)C(=O)N[C@@H](CC(=O)O)C(=O)N2CCC[C@H]2C(=O)N[C@@H](Cc2cnc[nH]2)C(=O)N[C@@H](CCC(=O)O)C(=O)N2C[C@H](O)C[C@H]2C(=O)N[C@@H](Cc2c[nH]c3ccccc23)C(=O)N[C@@H](CO)C(=O)N[C@@H](Cc2c[nH]c3ccccc23)C(=O)N1C [Example 5230] ({CH2CO}-Y[NMeA]DPHE[Hyp]WSW[NMeNle][NMeNle]ECG-NH2; thioether N-14)	1 to 9.9
CCCC[C@H]1C(=O)N2C[C@H](O)C[C@@H]2C(=O)N[C@@H](CC(=O)O)C(=O)N[C@@H](C(C)C)C(=O)N(C)[C@@H](Cc2ccccc2)C(=O)N[C@@H](Cc2ccc(O)cc2)C(=O)N2CCC[C@@H]2C(=O)N[C@@H](Cc2c[nH]c3ccccc23)C(=O)N[C@@H](Cc2ccc(O)cc2)C(=O)N[C@@H](CCO)C(=O)N[C@H](C(=O)NCC(N)=O)CSCC(=O)N[C@@H](Cc2cc(F)c(F)c(F)c2)C(=O)N(C)[C@@H](Cc2ccccc2)C(=O)N1C [Example 10153] ({CH2CO}-[Phe(3,4,5-F3)][NMeF][NMeNle][d(cisHyp)]DV[NMeF]Y[dP]WY[hSer]CG-NH2; thioether N-13)	1 to 9.9
COCC[C@H]1C(=O)N2C[C@@H](O)C[C@@H]2C(=O)N[C@@H](CC(=O)O)C(=O)N[C@@H](C(C)C)C(=O)N(C)[C@@H](Cc2ccccc2)C(=O)N[C@@H](Cc2ccc(OC)cc2)C(=O)N2C[C@@H](O)C[C@@H]2C(=O)N[C@@H](Cc2c[nH]c3ccccc23)C(=O)N[C@@H](Cc2ccc(O)cc2)C(=O)N[C@@H](CC(C)C)C(=O)N[C@H](C(=O)NCC(N)=O)CSCC(=O)N[C@@H](Cc2ccc(F)c(F)c2)C(=O)N(C)[C@@H](Cc2ccccc2)C(=O)N1C [Example 9235] ({CH2CO}-[Phe(3,4-F2)][NMeF][NMehSer](Me)[dHyp]DV[NMeF]Y(Me)[dHyp]WYLCG-NH2; thioether N-13)	1 to 9.9
CCCC[C@H]1C(=O)N2CSC[C@@H]2C(=O)N[C@@H](CC(N)=O)C(=O)N[C@@H](C(C)C)C(=O)N(C)[C@@H](Cc2ccccc2)C(=O)N[C@@H](Cc2ccc(O)cc2)C(=O)N2CCC[C@@H]2C(=O)N[C@@H](Cc2c[nH]c3ccccc23)C(=O)N[C@@H](Cc2ccc(O)cc2)C(=O)N[C@@H](CC(C)C)C(=O)N[C@H](C(=O)NCC(N)=O)CSCC(=O)N[C@@H](Cc2ccccc2)C(=O)N(C)[C@@H](Cc2ccccc2)C(=O)N1C [Example 10073] ({CH2CO}-F[NMeF][NMeNle][dThz]NV[NMeF]Y[dP]WYLCG-NH2; thioether N-13)	10 to 99.9
CCCC[C@H]1C(=O)N(C)[C@@H](CCCC)C(=O)N[C@@H](CCC(=O)O)C(=O)N[C@H](C(=O)NCC(N)=O)CSCC(=O)N[C@@H](Cc2ccc(O)cc2)C(=O)N2CCCC[C@@H]2C(=O)N[C@@H](CC(N)=O)C(=O)N2CCC[C@H]2C(=O)N[C@@H](CN)C(=O)N[C@@H](CCC(=O)O)C(=O)N2C[C@H](O)C[C@H]2C(=O)N[C@@H](Cc2c[nH]c3ccccc23)C(=O)N[C@@H](CO)C(=O)N[C@@H](Cc2cn(CC(=O)O)c3ccccc23)C(=O)N1C [Example 1290] ({CH2CO}-Y[dPip]NP[Dap]E[Hyp]WS[Trp(1-CH2COOH)][NMeNle][NMeNle]ECG-NH2; thioether N-14)	10 to 99.9
CCCC[C@H]1C(=O)N(C)[C@@H](CCCC)C(=O)N[C@@H](CCC(=O)O)C(=O)N[C@H](C(=O)NCC(N)=O)CSCC(=O)N[C@@H](Cc2ccc(O)cc2)C(=O)N2CCCC[C@H]2C(=O)N[C@@H](CC(=O)O)C(=O)N2CCC[C@H]2C(=O)N[C@@H](Cc2cnc[nH]2)C(=O)N[C@@H](CCC(N)=O)C(=O)N2C[C@H](O)C[C@H]2C(=O)N[C@@H](Cc2c[nH]c3ccccc23)C(=O)N[C@@H](CO)C(=O)N[C@@H](Cc2c[nH]c3ccccc23)C(=O)N1C [Example 1260] ({CH2CO}-Y[Pip]DPHQ[Hyp]WSW[NMeNle][NMeNle]ECG-NH2; thioether N-14)	1 to 9.9
CCCC[C@H]1C(=O)N[C@@H](CC(N)=O)C(=O)N2CCC[C@H]2C(=O)N[C@@H](CO)C(=O)N[C@@H](CCO)C(=O)N2CCC[C@H]2C(=O)N[C@@H](Cc2c[nH]c3ccccc23)C(=O)N[C@@H](CN)C(=O)N[C@@H](Cc2c[nH]c3ccccc23)C(=O)N(C)[C@@H](C)C(=O)N(C)[C@@H](C)C(=O)N[C@@H](CCCNC(=N)N)C(=O)NC(C(=O)NCC(N)=O)CSCC(=O)N[C@@H](Cc2ccc(O)cc2)C(=O)N1C (stereo partly drawn) [Example 10202] ({CH2CO}-Y[NMeNle]NPS[hSer]PW[Dap]W[NMeA][NMeA]R[ξC]G-NH2; thioether N-14)	1000 to 10000
CCCC[C@H]1C(=O)N(C)[C@@H](CCCC)C(=O)N[C@@H](CO)C(=O)N[C@H](C(=O)NCC(N)=O)CSCC(=O)N[C@@H](Cc2ccc(OC)cc2)C(=O)N(C)[C@@H](C)C(=O)N[C@@H](CC(N)=O)C(=O)N2CCC[C@H]2C(=O)N[C@@H](CO)C(=O)N[C@@H](CCC(N)=O)C(=O)N2C[C@H](O)C[C@H]2C(=O)N[C@@H](Cc2c[nH]c3ccccc23)C(=O)N[C@@H](CO)C(=O)N[C@@H](Cc2cn(CC(=O)O)c3ccccc23)C(=O)N1C [Example 7144] ({CH2CO}-Y(Me)[NMeA]NPSQ[Hyp]WS[Trp(1-CH2COOH)][NMeNle][NMeNle]SCG-NH2; thioether N-14)	1 to 9.9
CCCC[C@H]1C(=O)N(C)[C@@H](CCCC)C(=O)N[C@@H](CCC(=O)O)C(=O)N[C@H](C(=O)NCC(N)=O)CSCC(=O)N[C@@H](Cc2ccc(O)cc2)C(=O)N(C)[C@@H](C)C(=O)N[C@@H](CC(N)=O)C(=O)N2CCC[C@H]2C(=O)N[C@@H](CN)C(=O)N[C@@H](CCC(=O)O)C(=O)N2C[C@H](O)C[C@H]2C(=O)N[C@@H](Cc2c[nH]c3ccccc23)C(=O)N[C@@H](CCN)C(=O)N[C@@H](Cc2c[nH]c3ccccc23)C(=O)N1C [Example 5207] ({CH2CO}-Y[NMeA]NP[Dap]E[Hyp]W[Dab]W[NMeNle][NMeNle]ECG-NH2; thioether N-14)	10 to 99.9
CCCC[C@H]1C(=O)N(C)[C@@H](CCCC)C(=O)N[C@@H](C)C(=O)N[C@H](C(=O)NCC(N)=O)CSCC(=O)N[C@@H](Cc2ccc(O)cc2)C(=O)N(C)[C@@H](C)C(=O)N[C@@H](CC(N)=O)C(=O)N2CCC[C@H]2C(=O)N[C@@H](CN)C(=O)N[C@@H](CC(C)C)C(=O)N2C[C@H](O)C[C@H]2C(=O)N[C@@H](Cc2c[nH]c3ccccc23)C(=O)N[C@@H](CCN)C(=O)N[C@@H](Cc2cn(CC(=O)O)c3ccccc23)C(=O)N1C [Example 5166] ({CH2CO}-Y[NMeA]NP[Dap]L[Hyp]W[Dab][Trp(1-CH2COOH)][NMeNle][NMeNle]ACG-NH2; thioether N-14)	10 to 99.9
